In series [1] the test system is pseudovirus bearing S protein of HCoV-NL63. Put plainly: organism not typed. The format is cell-based. The settings on record: for IC50: Calu-3, read-out: IC50 estimate, pseudovirus cell entry NL63-S; for inhibition at 0.00025 µM / inhibition at 0.0025 µM / inhibition at 0.025 µM / inhibition at 0.25 µM / inhibition at 2.5 µM / inhibition at 25 µM: Calu-3, read-out: mean inhibition.

The subject of series [2] is SARS-CoV-2 isolate hCoV-19/Germany/FI1103201/2020. The series is described as follows: microbe, parasite or virus in culture. The format is cell-based.
A further series has as its system Calu-3 cells. The series is described as follows: Analysis of cell viability (CellTiter-Glo). The format is cell-based, human. To be noted: 24 h, Supplementary Fig. S6. As to the method:
Cells incubated with a medium containing DMSO (solvent) served as controls. Cell viability was assessed using the CellTiter-Glo® Luminescent Cell Viability Assay (Promega) according to the manufacturer’s instructions. Data normalization was performed as follows: cell viability in the absence of inhibitor (DMSO-only samples) was set as 100% and the relative viability of cells incubated with the respective inhibitor concentrations was calculated.

Series [3] relates to pseudoviruses carrying diverse coronavirus S proteins. The format is cell-based.
The test system of series [4] is pseudovirus bearing S protein of HCoV-229E. Put plainly: organism not typed. The format is cell-based. To be noted: for IC50: Calu-3, read-out: IC50 estimate, pseudovirus cell entry 229E-S; for inhibition at 0.00025 µM / inhibition at 0.0025 µM / inhibition at 0.025 µM / inhibition at 0.25 µM / inhibition at 2.5 µM / inhibition at 25 µM: Calu-3, read-out: mean inhibition.

For series [5], the system named is pseudovirus bearing S protein of SARS-CoV-2 lineage BA.2.86. Put plainly: organism not typed. The format is cell-based. To be noted: for inhibition at 0.00025 µM / inhibition at 0.0025 µM / inhibition at 0.025 µM / inhibition at 0.25 µM / inhibition at 2.5 µM / inhibition at 25 µM: Calu-3, BA.2.86; for inhibition at 0.00025 µM: concentration 0.25 nM; for inhibition at 0.0025 µM: concentration 2.5 nM; for inhibition at 0.025 µM: concentration 25 nM; for inhibition at 0.25 µM: concentration 250 nM; for inhibition at 2.5 µM: concentration 2500 nM; for inhibition at 25 µM: concentration 25000 nM; for IC50: Calu-3 cells, read-out: IC50, pseudovirus cell entry BA.2.86.

SMILES strings stand for the structures. Like-named read-outs stand apart in the source and are kept apart here.

Here are results for 2 molecules from PMC12307812 (Nature Communications, 2025).

A word on the IC50: it is the concentration needed to halve the response being measured. One may read the inhibition as the drop in the measured response relative to a control, in per cent. As for `CC(C)(C)NC(=O)N1CCN(C(=O)N2C(=O)C(CCCNC(=N)N)C2C(=O)O)CC1` (centres unmarked) [BMS-262084], in series [1], the IC50 was 432 ± 223 nM, the inhibition at 0.00025 µM is -0.475%, the inhibition at 0.0025 µM was determined as 8.77% and the inhibition at 0.025 µM was 16.9%. In series [1], the inhibition at 0.25 µM was determined as 57.8%, the inhibition at 2.5 µM stood at 66.8% and the inhibition at 25 µM was found to be 73.5%. In series [2] (Severe acute respiratory syndrome coronavirus 2, Calu-3, 24 h, read-out: IC50, relative infectivity of SARS-CoV-2), the IC50 is 510 nM. Moreover, in series [2] (Severe acute respiratory syndrome coronavirus 2, Calu-3 cells, Figure S5, read-out: IC50 estimate, SARS-CoV-2 entry inhibition), the IC50 is 509 ± 146 nM. In addition, in the series with Calu-3 cells, the “cytotoxicity at concentrations used for preincubation” value was “noncytotoxic”. In series [3], the “fold more potent than camostat (lower IC50)” value is given as about 2 fold. Moreover, the “fold more potent than camostat (lower IC50)” value in series [3] (SARS-CoV-2 lineages B.1, B.1.617.2, EG.5.1, BA.2.86, Calu-3 cells) is 3–8 fold. For the same molecule, in series [4], the IC50 is 990 ± 209 nM, the inhibition at 0.00025 µM turned out to be 0.992%, the inhibition at 0.0025 µM stood at 8.96% and the inhibition at 0.025 µM was determined as 22%. Also, in series [4], the inhibition at 0.25 µM is 42.2%, the inhibition at 2.5 µM was 58.4% and the inhibition at 25 µM was found to be 72.2%. Besides, in series [5], the inhibition at 0.00025 µM was determined as 2.76%, the inhibition at 0.0025 µM is 1.45%, the inhibition at 0.025 µM was 44.5% and the inhibition at 0.25 µM came to 74.7%. In addition, in series [5], the inhibition at 2.5 µM turned out to be 89.7%, the inhibition at 25 µM stood at 98.9% and the IC50 is 48.2 nM.

Turning to `CN(C)C(=O)COC(=O)Cc1ccc(OC(=O)c2ccc(NC(=N)N)cc2)cc1` [camostat], in series [1], the IC50 is 806 ± 263 nM, the inhibition at 0.00025 µM is -3.23%, the inhibition at 0.0025 µM worked out at 5.92% and the inhibition at 0.025 µM was determined as 15.4%. In series [1], the inhibition at 0.25 µM was 41.9%, the inhibition at 2.5 µM is 66.4% and the inhibition at 25 µM came to 73.2%. Besides, in series [4], the IC50 was 2010 ± 177 nM, the inhibition at 0.00025 µM stood at 1.18%, the inhibition at 0.0025 µM came to 7.64% and the inhibition at 0.025 µM was 11.6%. In series [4], the inhibition at 0.25 µM came out at 30.5%, the inhibition at 2.5 µM came to 52.3% and the inhibition at 25 µM was found to be 73.8%. In series [5], the inhibition at 0.00025 µM was determined as 2.77%, the inhibition at 0.0025 µM was determined as 3.7%, the inhibition at 0.025 µM was found to be 24% and the inhibition at 0.25 µM is 61.2%. For the same molecule, in series [5], the inhibition at 2.5 µM came out at 85.5%, the inhibition at 25 µM is 85.8% and the IC50 worked out at 148 nM.
